Experimental data: ChEMBL document CHEMBL1143351 (J Med Chem, 2009)
pKi: −log10 of the molar value.

What was measured:
[1] = target: T1, Nitric oxide synthase, inducible (Mus musculus, UniProt P29477)
T1 sequence (P29477 whole entry): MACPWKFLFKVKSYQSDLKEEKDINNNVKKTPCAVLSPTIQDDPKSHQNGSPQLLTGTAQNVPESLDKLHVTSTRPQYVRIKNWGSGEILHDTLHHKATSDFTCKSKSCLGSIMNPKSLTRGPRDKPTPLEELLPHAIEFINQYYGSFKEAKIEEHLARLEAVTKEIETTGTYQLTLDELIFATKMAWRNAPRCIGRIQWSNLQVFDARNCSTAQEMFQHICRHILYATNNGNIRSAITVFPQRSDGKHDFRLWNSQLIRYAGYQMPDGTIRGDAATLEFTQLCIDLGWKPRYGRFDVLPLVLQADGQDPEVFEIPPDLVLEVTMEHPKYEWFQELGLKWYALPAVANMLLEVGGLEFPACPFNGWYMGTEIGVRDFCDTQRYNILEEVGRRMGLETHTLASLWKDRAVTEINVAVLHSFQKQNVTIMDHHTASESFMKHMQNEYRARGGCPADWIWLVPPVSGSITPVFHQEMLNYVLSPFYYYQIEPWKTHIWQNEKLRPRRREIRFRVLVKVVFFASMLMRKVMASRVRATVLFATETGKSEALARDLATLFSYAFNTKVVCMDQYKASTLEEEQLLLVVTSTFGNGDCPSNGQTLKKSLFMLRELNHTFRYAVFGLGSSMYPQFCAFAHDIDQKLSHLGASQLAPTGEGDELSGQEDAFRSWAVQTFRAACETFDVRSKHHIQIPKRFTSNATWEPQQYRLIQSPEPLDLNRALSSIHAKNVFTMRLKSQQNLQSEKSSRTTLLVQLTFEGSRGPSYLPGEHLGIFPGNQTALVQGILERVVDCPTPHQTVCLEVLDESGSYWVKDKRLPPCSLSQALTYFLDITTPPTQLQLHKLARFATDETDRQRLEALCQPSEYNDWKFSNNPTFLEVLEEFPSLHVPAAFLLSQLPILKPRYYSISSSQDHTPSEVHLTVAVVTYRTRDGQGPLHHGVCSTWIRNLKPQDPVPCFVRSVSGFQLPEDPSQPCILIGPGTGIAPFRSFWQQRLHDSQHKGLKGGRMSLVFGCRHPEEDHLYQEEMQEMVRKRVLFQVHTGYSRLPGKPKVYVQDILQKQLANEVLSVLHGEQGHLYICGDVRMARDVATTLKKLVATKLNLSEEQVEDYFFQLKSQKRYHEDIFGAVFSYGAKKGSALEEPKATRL

[2] = target: Nitric oxide synthase 1 (Rattus norvegicus, UniProt P29476)
Chain of Nitric oxide synthase 1 (P29476 whole entry): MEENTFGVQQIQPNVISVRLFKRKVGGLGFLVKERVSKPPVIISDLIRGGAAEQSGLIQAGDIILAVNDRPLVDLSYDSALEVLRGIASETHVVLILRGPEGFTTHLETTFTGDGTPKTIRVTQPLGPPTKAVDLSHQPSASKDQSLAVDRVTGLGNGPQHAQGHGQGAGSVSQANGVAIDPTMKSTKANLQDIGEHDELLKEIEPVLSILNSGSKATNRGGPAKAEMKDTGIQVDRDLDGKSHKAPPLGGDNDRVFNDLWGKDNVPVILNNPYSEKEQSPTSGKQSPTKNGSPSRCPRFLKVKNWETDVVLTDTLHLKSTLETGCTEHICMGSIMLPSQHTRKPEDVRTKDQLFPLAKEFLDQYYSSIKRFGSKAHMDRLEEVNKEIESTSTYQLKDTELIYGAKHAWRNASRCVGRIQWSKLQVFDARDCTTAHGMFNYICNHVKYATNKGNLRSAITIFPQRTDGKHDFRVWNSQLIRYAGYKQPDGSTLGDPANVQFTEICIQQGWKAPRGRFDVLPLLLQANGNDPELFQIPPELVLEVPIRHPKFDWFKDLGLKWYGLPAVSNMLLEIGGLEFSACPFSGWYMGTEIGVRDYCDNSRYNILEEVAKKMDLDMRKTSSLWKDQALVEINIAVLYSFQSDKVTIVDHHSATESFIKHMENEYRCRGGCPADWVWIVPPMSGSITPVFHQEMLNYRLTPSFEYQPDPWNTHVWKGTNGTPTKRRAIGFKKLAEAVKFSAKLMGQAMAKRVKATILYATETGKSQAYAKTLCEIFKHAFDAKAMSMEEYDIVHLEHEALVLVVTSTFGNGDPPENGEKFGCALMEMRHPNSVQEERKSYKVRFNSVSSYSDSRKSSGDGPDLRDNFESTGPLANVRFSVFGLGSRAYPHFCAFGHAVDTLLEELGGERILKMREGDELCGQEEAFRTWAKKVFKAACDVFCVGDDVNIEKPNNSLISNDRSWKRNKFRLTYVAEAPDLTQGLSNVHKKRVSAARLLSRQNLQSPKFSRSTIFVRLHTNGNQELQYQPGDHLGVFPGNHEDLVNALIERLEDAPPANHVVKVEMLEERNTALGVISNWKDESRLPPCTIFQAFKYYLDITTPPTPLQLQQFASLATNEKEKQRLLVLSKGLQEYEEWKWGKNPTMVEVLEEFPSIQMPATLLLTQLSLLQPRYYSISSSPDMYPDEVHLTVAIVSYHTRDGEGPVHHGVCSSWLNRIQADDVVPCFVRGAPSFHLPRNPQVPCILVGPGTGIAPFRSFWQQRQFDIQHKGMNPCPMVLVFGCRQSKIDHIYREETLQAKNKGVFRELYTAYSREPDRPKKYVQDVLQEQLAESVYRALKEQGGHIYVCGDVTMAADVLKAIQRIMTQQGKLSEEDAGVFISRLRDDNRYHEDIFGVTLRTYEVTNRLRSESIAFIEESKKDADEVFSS

[3] = target: T2, Nitric oxide synthase 3 (Bos taurus, UniProt P29473)
T2 sequence (P29473 whole entry): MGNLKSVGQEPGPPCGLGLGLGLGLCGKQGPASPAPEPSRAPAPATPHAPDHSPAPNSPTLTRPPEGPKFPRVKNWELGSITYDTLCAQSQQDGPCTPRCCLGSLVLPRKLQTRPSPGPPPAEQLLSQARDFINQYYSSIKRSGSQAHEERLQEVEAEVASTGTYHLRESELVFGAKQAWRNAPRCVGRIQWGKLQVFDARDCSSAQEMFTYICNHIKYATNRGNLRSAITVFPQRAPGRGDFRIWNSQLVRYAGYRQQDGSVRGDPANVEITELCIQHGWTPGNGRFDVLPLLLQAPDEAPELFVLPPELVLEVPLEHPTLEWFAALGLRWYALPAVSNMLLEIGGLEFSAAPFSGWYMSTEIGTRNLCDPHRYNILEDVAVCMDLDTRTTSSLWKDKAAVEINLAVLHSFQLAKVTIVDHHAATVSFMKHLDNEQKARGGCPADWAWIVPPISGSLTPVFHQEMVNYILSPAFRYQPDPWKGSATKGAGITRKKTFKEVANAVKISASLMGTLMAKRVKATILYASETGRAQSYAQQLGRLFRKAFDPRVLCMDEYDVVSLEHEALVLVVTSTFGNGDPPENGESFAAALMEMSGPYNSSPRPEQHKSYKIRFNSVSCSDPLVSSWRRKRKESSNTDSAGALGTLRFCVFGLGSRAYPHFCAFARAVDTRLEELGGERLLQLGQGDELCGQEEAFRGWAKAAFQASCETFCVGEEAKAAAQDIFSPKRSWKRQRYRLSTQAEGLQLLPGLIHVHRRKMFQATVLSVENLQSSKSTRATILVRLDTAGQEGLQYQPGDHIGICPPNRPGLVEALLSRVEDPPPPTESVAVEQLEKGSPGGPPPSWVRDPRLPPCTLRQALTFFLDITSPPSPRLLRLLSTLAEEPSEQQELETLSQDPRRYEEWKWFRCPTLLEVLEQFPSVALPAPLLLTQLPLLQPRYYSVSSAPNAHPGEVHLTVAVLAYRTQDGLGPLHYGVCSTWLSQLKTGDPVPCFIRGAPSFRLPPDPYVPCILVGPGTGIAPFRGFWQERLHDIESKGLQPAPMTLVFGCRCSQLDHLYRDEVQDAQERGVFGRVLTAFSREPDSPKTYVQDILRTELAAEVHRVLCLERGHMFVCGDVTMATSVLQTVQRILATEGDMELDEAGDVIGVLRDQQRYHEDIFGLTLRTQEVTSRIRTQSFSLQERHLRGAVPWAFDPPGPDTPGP

Structure (SMILES) | pKi [1] | pKi [2] | pKi [3]
CC(=O)[C@@H]1C[C@@H](NC(=O)[C@@H](N)CCCNC(=N)N[N+](=O)[O-])CN1 | 4.54 | 7.00 | 3.89
CC(=O)[C@H]1CNC[C@@H]1NC(=O)[C@@H](N)CCCNC(=N)N[N+](=O)[O-] | 5.24 | 7.06 | 3.70
Nc1cccc(C[C@H]2CNC[C@H]2N[C@@H]2CCNC2)n1 (racemic) | 3.70 | 5.87 | 3.37
Nc1cccc(C[C@H]2CNC[C@H]2N[C@@H]2CCN(Cc3ccccc3)C2)n1 (racemic) | 3.37 | 5.56 | 3.74
Nc1cccc(C[C@H]2CNC[C@H]2N[C@H]2CCN(Cc3ccccc3)C2)n1 (racemic) | 3.65 | 5.48 | 3.97
Cc1cc(N)nc(C[C@H]2CNC[C@H]2N(C)CCNCCc2cccc(F)c2)c1 (racemic) | 4.42 | 6.49 | 4.03
Nc1cccc(C[C@H]2CNC[C@H]2NC[C@H](N)Cc2ccccc2)n1 (racemic) | 3.62 | 5.62 | 2.84
Nc1cccc(C[C@H]2CNC[C@H]2NC[C@@H](N)Cc2ccccc2)n1 (racemic) | 3.53 | 5.64 | 2.84
Nc1cccc(C[C@H]2CNC[C@H]2N[C@H]2CCNC2)n1 (racemic) | 3.76 | 5.90 | 3.61
Cc1cc(C[C@H]2CNC[C@H]2NCCNCCc2cccc(F)c2)cc(N)n1 (racemic) | 4.97 | 6.26 | 3.79
Cc1cc(N)nc(C[C@H]2CNC[C@H]2N(C)CCN(C)CCc2cccc(F)c2)c1 (racemic) | 4.25 | 5.92 | 4.31
CN(C)CCN[C@@H]1CNC[C@@H]1Cc1cccc(N)n1 (racemic) | 3.71 | 5.48 | 3.85

Second part, the compound after the results:

pKi [1] | pKi [2] | pKi [3] | Structure (SMILES)
 | 6.69 |  | Cc1cc(N)nc(C[C@H]2CNC[C@H]2NCCNCc2cccc(C(F)(F)F)c2)c1 (racemic)
5.05 | 6.80 | 4.14 | Cc1cccc(CNCCN[C@@H]2CNC[C@@H]2Cc2cc(C)cc(N)n2)c1 (racemic)
5.45 | 6.80 | 4.39 | Cc1cc(N)nc(C[C@H]2CNC[C@H]2NCCNCc2ccc(Cl)c(Cl)c2)c1 (racemic)
5.11 | 6.96 | 4.52 | Cc1cc(N)nc(C[C@H]2CNC[C@H]2NCCNCc2ccc(Cl)cc2Cl)c1 (racemic)
4.91 | 6.87 | 4.40 | Cc1cc(N)nc(C[C@H]2CNC[C@H]2NC[C@H](C)NCc2ccc(Cl)cc2)c1 (racemic)
4.85 | 6.71 | 4.08 | Cc1cc(N)nc(C[C@H]2CNC[C@H]2NCCNCc2ccc(C(F)(F)F)cc2)c1 (racemic)
5.10 | 6.84 | 3.89 | Cc1cc(N)nc(C[C@H]2CNC[C@H]2NCCNCc2ccc(F)cc2)c1 (racemic)
5.34 | 7.57 | 4.74 | Cc1cc(N)nc(C[C@H]2CNC[C@H]2NCCNCCc2ccc(F)cc2)c1 (racemic)
3.63 | 4.73 | 3.85 | Cc1cc(C[C@H]2CNC[C@H]2NCCNCc2ccc(Cl)cc2)cc(N)n1 (racemic)
 |  | 3.90 | Cc1cc(N)nc(C[C@H]2CNC[C@H]2N(C)CCNCc2ccc(Cl)cc2)c1 (racemic)
3.79 | 5.93 | 2.84 | Nc1cccc(C[C@H]2CNC[C@H]2NCCNCc2ccccc2)n1 (racemic)
